Measurements: article PMC7187754, “Identification of the Molecular Determinants Involved in Antimicrobial Activity of Pseudodesmin A, a Cyclic Lipopeptide From the Viscosin Group” (Frontiers in Microbiology, 2020)
Where two headings read alike, the source gives them in different places.

Legend:
[1] = test system: Streptococcus pneumoniae LMG 21598; experiment: Broth microdilution antimicrobial assay (MIC1/2); assay type: cell-based
[2] = test system: Enterococcus faecium LMG 9431; experiment: Broth microdilution antimicrobial assay (MIC1/2); assay type: cell-based
[3] = test system: Clostridium perfringens NCTC 8798; assay type: cell-based
[4] = test system: Streptococcus pyogenes LMG 15868; experiment: Broth microdilution antimicrobial assay (MIC1/2); assay type: cell-based
[5] = test system: Staphylococcus aureus LMG 10147; experiment: Broth microdilution antimicrobial assay (MIC1/2); assay type: cell-based
[6] = test system: Enterococcus faecalis LMG 8222; experiment: Broth microdilution antimicrobial assay (MIC1/2); assay type: cell-based
[7] = fluorescence permeability assays, model membranes, natural compounds; ref Geudens et al., 2017; cited from earlier work
Source text: We have previously reported the three-dimensional structure of the 2 neutral subgroup representatives, viscosinamide A (D^0) ([Geudens et al., 2014]) and pseudodesmin A (L^0) ([Sinnaeve et al., 2009a], [b]), while that of anionic WLIP (D^–) was already available from literature ([Han et al., 1992]). To avoid ambiguity, the three-dimensional structure is referred to hereafter as the ‘fold’ of a Ps-CLiP whereas the chemical (covalent) structure will simply be referred to as ‘structure’ as indicated in Figure 1C. In spite of the D/L switch in stereochemistry for Leu5, all have identical backbone ...

[8] = RP-HPLC retention time as measure of overall hydrophobicity; assay type: physicochemical; settings: chromatographic, RP-HPLC (LC-MS system: Kinetex C18, 150 mm × 4.60 mm, 5 μm, 1.5 ml/min; gradient not stated at this place)
Description: Chemicals and general procedures are listed in the Supplementary Materials section. All procedures for the synthesis and purification of specific building blocks as well as solid-phase peptide synthesis, and cyclization release of the PsdA-analogs were carried out as described previously for the total synthesis of pseudodesmin A (1) and its enantiomer (2) ([De Vleeschouwer et al., 2014]). Practical details and relevant variations of the procedures for specific cases are collected in the Supplementary Materials section of this paper, together with full characterization of all fatty acid building blocks and analogs. The crude cyclic lipopeptides were purified using either semi-preparative or preparative RP-HPLC. Semi-preparative purification was performed on an Agilent 1100 series instrument using a Kromasil column (C18, 250 mm × 7.8 mm, 5 μm particle size). The analyses were executed with a flow rate of 3 ml/min and with the following solvent systems: H2O containing 0.1% HCOOH (A) and CH3CN (B). […] High-resolution mass spectra were recorded on an Agilent 6220A time-of-flight mass spectrometer, equipped with an Agilent ESI/APCI multimode source. […]

[9] = minimal concentration inhibiting growth by at least 50% vs untreated control, broth microdilution (CLSI), 0.016-32 μg/ml twofold dilutions, ~5 × 10^5 CFU/ml, 37°C, 24 h, OD 590 nm
[10] = minimal concentration inhibiting growth by at least 50% vs untreated control, broth microdilution (CLSI), Reinforced Clostridial Medium, 0.016-32 μg/ml twofold dilutions, ~5 × 10^5 CFU/ml, 37°C, 24 h, OD 590 nm

Row | Molecule | MIC1/2 S. pneumoniae LMG 21598 [1] [µg/mL] | MIC1/2 E. faecium LMG 9431 [2] [µg/mL] | MIC1/2 C. perfringens NCTC 8798 [3] [µg/mL] | MIC1/2 S. pyogenes LMG 15868 [4] [µg/mL] | MIC1/2 S. aureus LMG 10147 [5] [µg/mL] | MIC1/2 E. faecalis LMG 8222 [6] [µg/mL] | MIC1/2 S. pneumoniae LMG 21598 [1, 9] [µg/mL] | MIC1/2 E. faecium LMG 9431 [2, 9] [µg/mL] | MIC1/2 C. perfringens NCTC 8798 [3, 10] [µg/mL] | C1/2 of membrane permeabilization [7] [µM] | HPLC retention time (overall hydrophobicity) [8] [min] | MIC1/2 S. pyogenes LMG 15868 [4, 9] [µg/mL] | MIC1/2 S. aureus LMG 10147 [5, 9] [µg/mL] | MIC1/2 E. faecalis LMG 8222 [6, 9] [µg/mL]
1 | CN[C@H](CC(C)C)C(=O)N[C@H]1C(=O)N[C@@H](CC(N)=O)C(=O)N[C@H]2C(=O)N[C@H]3C(=O)N[C@H](C(=O)N[C@H](C(=O)O)c4cc(O)cc(O)c4-c4cc3ccc4O)[C@H](O)c3ccc(c(Cl)c3)Oc3cc2cc(c3O[C@@H]2O[C@H](CO)[C@@H](O)[C@H](O)[C@H]2O[C@H]2C[C@](C)(N)[C@H](O)[C@H](C)O2)Oc2ccc(cc2Cl)[C@H]1O [Vancomycin] | 0.25 | 1 | 0.25 | 0.5 | 2 | 4 |  |  |  |  |  |  |  | 
2 | Pseudodesmin A [compound 1] |  |  |  |  |  |  | 2 | 4 | 2 | ~3.7 | 7.4 | 1 | 4 | 4
3 | Daptomycin |  |  |  |  |  |  | 4 | 16 | 8 |  |  | 2 |  | >32
4 | viscosin |  |  |  |  |  |  |  |  |  | ~4.9 |  |  |  | 
